In US6538151B1, “Modifications of 2-amino-4-(4-fluorobenzylamino)-1-ethoxycarbonylaminobenzene, and processes for their preparation” (Asta Medica Aktiengesellschaft, priority 1997, dated 2003):

Columns and labels:
Format in all cases: physicochemical
[1] = Lattice stability on contact with solvents; settings: contact with solvents such as water, ethanol, acetone or toluene
[2] = Stability of the crystal structure (lattice) on heating and storage
Procedure: The crystal structure is stable up to approx. 80° C.

[3] = Solubility behaviour of the crystals; settings: finely granular crystals
From the text: The modifications B and C can be employed for specific pharmaceutical forms such as capsules and dry ampoules.

Row | SMILES | lattice change on contact with solvents [1] | lattice changes after storage ([2]; relatively long storage at temperatures up to 60° C. and relative atmospheric humidities up to 70%) | crystal structure is stable up to (temperature) ([2]; solid state, temperature limit of lattice stability) | speed of dissolution of crystals [3]
1 | CCOC(=O)Nc1ccc(NCc2ccc(F)cc2)cc1N [modification A, 2-amino-4-(4-fluorobenzylamino)-1-ethoxycarbonylaminobenzene] | no lattice change | no lattice changes are observed | approx. 80 °C | 
2 | CCOC(=O)Nc1ccc(NCc2ccc(F)cc2)cc1N [modification C, 2-amino-4-(4-fluorobenzylamino)-1-ethoxycarbonylaminobenzene] |  |  |  | particularly rapidly soluble
